Test results published in US20100272791A1, “COMPOSITION HAVING EFFECT ON TREATMENT AND PREVENTION OF DRY EYE SYNDROME” (MD BIOALPHA CO., LTD., priority 2005, published 2010).

Columns and labels:
dry eye-induced rabbits = test: Concanavalin A-induced dry eye in rabbits, eye drops, impression cytology; assay type: in vivo, rabbit; conditions: uridine eye drops in phosphate-buffered saline (1% and 5%), compared to 0.1% hyaluronic acid positive control and PBS control; FIG. 7
Description: Dry eye syndrome was induced by causing ocular inflammation via injection of concanavalin A into the lacrimal gland of rabbits (Journal of Ocular Pharmacology & Therapeutics 21(2), 139-148, 2005). Uridine was dissolved to a concentration of […] in a phosphate-buffered saline solution, respectively, and the resulting solutions were used as eye drops. A commercially available 0.1% hyaluronic acid preparation was used as a positive control group, and a phosphate-buffered saline solution was used as a control group. 1% and 5% uridine preparations, the hyaluronic acid preparation and the phosphate-buffered saline solution were respectively dropped into eyes of the dry eye-induced rabbits, and the impression cytology of ocular cells was performed to confirm alleviation of dry eye syndrome.

ocular epithelial cells [1] = test: Production of glycosaminoglycan in corneal epithelial cells (Biocolor assay kit); assay type: cell-based; conditions: uridine 0 μM to 50 μM, 48 hours, concentration-dependent, FIG. 5
Description: Ocular epithelial cells were stimulated for 48 hours by treatment with uridine (0 μM to 50 μM). The cell culture was collected, and an amount of glycosaminoglycan was measured at 550 nm using a Biocolor assay kit.

ocular epithelial cells [2] = test: Production of nitric oxide (NO) in H2O2-stimulated corneal epithelial cells (Griess reagent); assay type: cell-based; conditions: 100 μM H2O2, then uridine 0 μM to 100 μM, 48 hours, concentration-dependent, FIG. 6
corneal keratocytes [3] = test: Production of glycosaminoglycan in corneal keratocytes (Biocolor assay kit); assay type: cell-based; conditions: uridine 0 μM to 50 μM, 48 hours, effect from 1 μM, concentration-dependent, FIG. 2
Description: Corneal keratocytes were stimulated for 48 hours by treatment of the cells with uridine (0 μM to 50 μM). The cell culture was collected, and an amount of glycosaminoglycan was measured at 550 nm using a Biocolor assay kit.

dry eye patients = test: Clinical test, oral uridine in dry eye patients (double blind, placebo); assay type: in vivo, human; conditions: oral uridine 100 mg/day, three times a day for 3 months, versus placebo
Description: At initial point of treatment and two weeks, one month, two months and three months after initiation of treatment, changes in corneal symptoms and conditions and the presence/absence of adverse side effects were objectively evaluated by slit-lamp microscopic examination, measurement of intraocular pressure, ophthalmoscopic examination, Schirmer test, impression cytology and analysis photography of anterior eye segment. In addition, subjective questionnaires of individual patients were prepared, and changes in subjective symptoms of patients and the presence/absence of adverse side effects were observed.

corneal keratocytes [4] = test: Proliferation of corneal keratocytes (CCK-8); assay type: cell-based; conditions: uridine 0 μM to 10 μM, 48 hours; effect from 0.1 μM or higher; FIG. 4
Description: Corneal keratocytes were incubated in a 96-well plate and stimulated with uridine (0 μM to 10 μM) for 48 hours. Cell count was carried out at 450 nm using a Cell counting kit-8 (CCK-8).

corneal keratocytes [5] = test: Production of hyaluronic acid in corneal keratocytes (b-HABP plate assay); assay type: cell-based; conditions: uridine 0 μM to 10 μM, 48 hours; effect up to 5 μM, concentration-dependent; FIG. 1
Description: Corneal keratocytes were stimulated for 48 hours by treatment of the cells with uridine (0 μM to 10 μM). 100 μl of the cell culture was collected, and reacted with 100 μl of biotinylated hyaluronic acid binding protein (b-HABP, 50 ng/mL) at room temperature for 1 hour. On the day prior to experiments, 20 μg/mL of HA and a solution of 20 mM Na2CO3 were added to a 96-well plate which was then stored in a refrigerator for 24 hours, and washed with a standard assay buffer (SAB) three times. 1% BSA was added to the 96-well plate which was then reacted at room temperature for 90 min and washed with SAB three times to thereby prepare an HA-coated plate. The above-prepared cell culture was added to the HA-coated plate, and reacted with stirring at room temperature for 1 hour. Thereafter, the cell culture thus reacted was washed with SAB three times, followed by addition of Extra-avidin alkaline phosphatase (1:80000), reaction at room temperature for 30 min, and washing with SAB three times. 1 mg/mL of a disodium p-nitrophenyl solution in 100 mM NaCl and 5 mM MgCl was added to the cell culture which was then reacted for 20 to 60 min. Thereafter, 3N NaOH was added to terminate the reaction, and an amount of hyaluronic acid was measured at 405 nm.

corneal keratocytes [6] = test: Production of nitric oxide (NO) in H2O2-stimulated corneal keratocytes (Griess reagent); assay type: cell-based; conditions: 100 μM H2O2, then uridine 0 μM to 100 μM, 48 hours, effect up to 50 μM, concentration-dependent, FIG. 3

## O=c1ccn([C@@H]2O[C@H](CO)[C@@H](O)[C@H]2O)c(=O)[nH]1 [uridine]
Dry eye-induced rabbits
  restoration of epithelial cells in the impression cytology of ocular cells: significant restoration of epithelial cells
Ocular epithelial cells [1]
  production of glycosaminoglycan: promoted production of glycosaminoglycan
Ocular epithelial cells [2]
  production of nitric oxide (NO): inhibited production of nitric oxide (NO)
Corneal keratocytes [3]
  production of glycosaminoglycan: promoted production of glycosaminoglycan
Dry eye patients; FIG. 8
  tear-secretion test (Schirmer test): significant difference
Dry eye patients; FIG. 9
  corneal staining: significant difference
Corneal keratocytes [4]
  proliferation of cells: promoted proliferation of cells
Corneal keratocytes [5]
  production of hyaluronic acid: promoted production of hyaluronic acid
Corneal keratocytes [6]
  production of nitric oxide (NO): inhibited production of nitric oxide (NO)
